In patent US20220402950A1, “SUBSTITUTED BENZIMIDAZOLES AS PAD4 INHIBITORS” (BRISTOL-MYERS SQUIBB COMPANY, priority 2018, published 2022):

What follows are molecules tested against human PAD4 (hPAD4) (Homo sapiens, UniProt Q9UM07) (assay: RFMS Human PAD4 Functional Assay). Details: hPAD4 RFMS IC50, human PAD4, rapid-fire mass spectrum (RFMS) assay; 5 nM hPAD4, 250 μM BAEE.
Assay type: biochemical
Procedure, shortened: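 RapidFire ESI-MS quantification, normalised to a modified-citrulline internal standard, after phenyl glyoxal (final 4 mM) derivatisation of the TCA-quenched reaction. The enzyme (10 nM) sat 30 min with compound (up to 50 μM final) before 500 μM BAEE (as added) started a 90 min, 37 °C reaction. Buffer: HEPES pH 7.5, 50 μM calcium, 5 μM TPEN.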

human PAD4 (hPAD4), sequence (Q9UM07 whole entry): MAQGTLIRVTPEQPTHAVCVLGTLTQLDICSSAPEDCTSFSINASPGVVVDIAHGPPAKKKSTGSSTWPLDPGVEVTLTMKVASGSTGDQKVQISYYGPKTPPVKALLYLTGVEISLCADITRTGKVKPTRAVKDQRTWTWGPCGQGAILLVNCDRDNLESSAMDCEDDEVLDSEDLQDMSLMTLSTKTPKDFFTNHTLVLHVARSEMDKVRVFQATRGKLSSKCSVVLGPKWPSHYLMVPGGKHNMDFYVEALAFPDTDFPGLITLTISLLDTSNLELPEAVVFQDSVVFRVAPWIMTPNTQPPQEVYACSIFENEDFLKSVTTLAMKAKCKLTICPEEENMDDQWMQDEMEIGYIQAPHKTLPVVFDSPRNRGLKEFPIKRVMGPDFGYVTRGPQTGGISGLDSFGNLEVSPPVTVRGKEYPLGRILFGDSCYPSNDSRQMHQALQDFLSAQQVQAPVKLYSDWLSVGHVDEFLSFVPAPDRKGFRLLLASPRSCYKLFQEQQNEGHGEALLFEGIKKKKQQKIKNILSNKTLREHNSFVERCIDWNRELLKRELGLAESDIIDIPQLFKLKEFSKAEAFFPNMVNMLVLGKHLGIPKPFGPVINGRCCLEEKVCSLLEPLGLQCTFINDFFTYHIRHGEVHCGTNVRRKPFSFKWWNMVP

Molecule | IC50 [µM]
COc1cc(C(=O)N2C[C@H]3CC[C@@H]2[C@@H]3N)cc2nc(-c3cc4cccc(-c5cccs5)c4n3CC3CC3)n(C)c12 [Example 131, ((1R,4R,7R)-7-amino-2-azabicyclo[2.2.1]heptan-2-yl)(2-(1-(cyclopropylmethyl)-7-(thiophen-2-yl)-1H-indol-2-yl)-7-methoxy-1-methyl-1H-benzo[d]imidazol-5-yl)methanone] | 0.156
COc1cc(C(=O)N2C[C@H]3CC[C@@H]2[C@@H]3N)cc2nc(-c3cc4cccc(C5CC(C(=O)N(C)C)C5)c4n3CC3CC3)n(C)c12 (single isomer, unassigned) [Example 47] | 0.013
COc1cc(C(=O)N2C[C@H](N)C[C@@H](F)C2)cc2nc(-c3cc4cccc(C5CC(C(=O)N(C)C)C5)c4n3CC3CC3)n(C)c12 (single isomer, unassigned) [Example 118] | 0.278
COc1cc(C(=O)N2C[C@H]3CC[C@@H]2[C@@H]3N)cc2nc(-c3cc4cc(C)cc(-c5cn[nH]c5)c4n3CC3CC3)n(C)c12 [Example 154, ((1R,4R,7R)-7-amino-2-azabicyclo[2.2.1]heptan-2-yl)(2-(1-(cyclopropylmethyl)-5-methyl-7-(1H-pyrazol-4-yl)-1H-indol-2-yl)-7-methoxy-1-methyl-1H-benzo[d]imidazol-5-yl)methanone] | 0.043
COc1cc(C(=O)N2CC3CCC2[C@@H]3N)cc2nc(-c3cc4cccc(-c5cccnc5)c4n3CC3CC3)n(C)c12 (stereo partly drawn) [Example 134, ((7R)-7-amino-2-azabicyclo[2.2.1]heptan-2-yl)(2-(1-(cyclopropylmethyl)-7-(pyridin-3-yl)-1H-indol-2-yl)-7-methoxy-1-methyl-1H-benzo[d]imidazol-5-yl)methanone] | 0.155
COc1cc(C(=O)N2C[C@H]3CC[C@@H]2[C@@H]3N)cc2nc(-c3cc4cccc(Nc5cn(C)nc5C)c4n3CC3CC3C)n(C)c12 (stereo partly drawn) [Example 177, ((1R,4R,7R)-7-amino-2-azabicyclo[2.2.1]heptan-2-yl)(2-(7-((1,3-dimethyl-1H-pyrazol-4-yl)amino)-1-((2-methylcyclopropyl)meth-yl)-1H-indol-2-yl)-7-methoxy-1-methyl-1H-benzo[d]imidazol-5-yl)methanone] | 0.04
COc1cc(C(=O)N2C[C@H]3CC[C@@H]2[C@@H]3N)cc2nc(-c3cc4cccc(C5CCN(C(=O)C(OC)C6CC6)CC5)c4n3CC3CC3)n(C)c12 (stereo partly drawn) [Example 233, 1-(4-(2-(5-((1R,4R,7R)-7-amino-2-azabicyclo[2.2.1]heptane-2-carbonyl)-7-methoxy-1-methyl-1H-benzo[d]imidazol-2-yl)-1-(cyclopropylmethyl)-1H-indol-7-yl)piperidin-1-yl)-2-cyclopropyl-2-methoxyethan-1-one] | 0.063
COc1cc(C(=O)N2C[C@H]3CC[C@@H]2[C@@H]3N)cc2nc(-c3cc4cccc(C5CNC5)c4n3CC3CC3)n(C)c12 [Example 8, (1R,4R,7R)-2-{2-[7-(azetidin-3-yl)-1-(cyclopropylmethyl)-1H-indol-2-yl]-7-methoxy-1-methyl-1H-1,3-benzodiazole-5-carbonyl}-2-azabicyclo[2.2.1]heptan-7-amine] | 0.073
COc1cc(C(=O)N2C[C@H]3CC[C@@H]2[C@@H]3N)cc2nc(-c3cc4cccc(C5CCS(=O)(=O)C5)c4n3CC3CC3)n(C)c12 (stereo partly drawn) [Example 30, ((1R,4R,7R)-7-amino-2-azabicyclo[2.2.1]heptan-2-yl)(2-(1-(cyclopropylmethyl)-7-(1,1-dioxidotetrahydrothiophen-3-yl)-1H-indol-2-yl)-7-methoxy-1-methyl-1H-benzo[d]imidazol-5-yl)methanone] | 0.08
COc1cc(C(=O)N2C[C@H](N)C[C@@H](F)C2)cc2nc(-c3cc4cccc(-c5ccc6c(c5)CC(=O)N6)c4n3CC3CC3)n(C)c12 [Example 207, 5-(2-(5-((3R,5R)-3-amino-5-fluoropiperidine-1-carbonyl)-7-methoxy-1-methyl-1H-benzo[d]imidazol-2-yl)-1-(cyclopropylmethyl)-1H-indol-7-yl)indolin-2-one] | 0.07
COc1cc(C(=O)N2C[C@H]3CC[C@@H]2[C@@H]3N)cc2nc(-c3cc4cccc(CC5CNC5)c4n3CC3CC3)n(C)c12 [Example 26, (1R,4R,7R)-2-(2-{7-[(azetidin-3-yl)methyl]-1-(cyclopropylmethyl)-1H-indol-2-yl}-7-methoxy-1-methyl-1H-1,3-benzodiazole-5-carbonyl)-2-azabicyclo[2.2.1]heptan-7-amine] | 0.041
COc1cc(C(=O)N2C[C@H]3CC[C@@H]2[C@@H]3N)cc2nc(-c3cc4cccc(C5CCN(C(N)=O)CC5)c4n3CC3CC3)n(C)c12 [Example 251, 4-(2-(5-((1R,4R,7R)-7-amino-2-azabicyclo[2.2.1]heptane-2-carbonyl)-7-methoxy-1-methyl-1H-benzo[d]imidazol-2-yl)-1-(cyclopropylmethyl)-1H-indol-7-yl)piperidine-1-carboxamide] | 0.02
COc1cc(C(=O)N2C[C@H]3CC[C@@H]2[C@@H]3N)cc2nc(-c3cc4cccc(-c5ccc6c(c5)CNC6=O)c4n3CC3CC3)n(C)c12 [Example 103, 5-(2-{5-[(1R,4R,7R)-7-amino-2-azabicyclo[2.2.1]heptane-2-carbonyl]-7-methoxy-1-methyl-1H-1,3-benzodiazol-2-yl}-1-(cyclopropylmethyl)-1H-indol-7-yl)-2,3-dihydro-1H-isoindol-1-one] | 0.025
COc1cc(C(=O)N2C[C@H]3CC[C@@H]2[C@@H]3N)cc2nc(-c3cc4cccc(CCCN)c4n3CC3CC3)n(C)c12 [Example 11, (1R,4R,7R)-2-{2-[7-(3-aminopropyl)-1-(cyclopropylmethyl)-1H-indol-2-yl]-7-methoxy-1-methyl-1H-1,3-benzodiazole-5-carbonyl}-2-azabicyclo[2.2.1]heptan-7-amine] | 0.048
COc1cc(C(=O)N2C[C@H]3CC[C@@H]2[C@@H]3N)cc2nc(-c3cc4cccc(C5CCN(C(=O)COc6ccccc6)CC5)c4n3CC3CC3)n(C)c12 [Example 235, 1-(4-(2-(5-((1R,4R,7R)-7-amino-2-azabicyclo[2.2.1]heptane-2-carbonyl)-7-methoxy-1-methyl-1H-benzo[d]imidazol-2-yl)-1-(cyclopropylmethyl)-1H-indol-7-yl)piperidin-1-yl)-2-phenoxyethan-1-one] | 0.058
COc1cc(C(=O)N2C[C@H]3CC[C@@H]2[C@@H]3N)cc2nc(-c3cc4cccc(-c5ccc(C(N)=O)c(Cl)c5)c4n3CC3CC3)n(C)c12 [Example 104, 4-(2-{5-[(1R,4R,7R)-7-amino-2-azabicyclo[2.2.1]heptane-2-carbonyl]-7-methoxy-1-methyl-1H-1,3-benzodiazol-2-yl}-1-(cyclopropylmethyl)-1H-indol-7-yl)-2-chlorobenzamide] | 0.093
[2H]C([2H])([2H])N(C(=O)C1CC(c2cccc3cc(-c4nc5cc(C(=O)N6C[C@H]7CC[C@@H]6[C@@H]7N)cc(OC)c5n4C)n(CC4CC4)c23)C1)C([2H])([2H])[2H] (single isomer, unassigned; isomer 2) [Example 196] | 0.053
COc1cc(C(=O)N2C[C@H]3CC[C@@H]2[C@@H]3N)cc2nc(-c3cc4cccc(C)c4n3CC3CC3)n(C)c12 [Example 147, ((1R,4R,7R)-7-amino-2-azabicyclo[2.2.1]heptan-2-yl)(2-(1-(cyclopropylmethyl)-7-methyl-1H-indol-2-yl)-7-methoxy-1-methyl-1H-benzo[d]imidazol-5-yl)methanone] | 0.079
COc1cc(C(=O)N2C[C@H]3CC[C@@H]2[C@@H]3N)cc2nc(-c3cc4cccc(C5CCN(C(C)=O)CC5)c4n3CC3CC3)n(C)c12 [Example 15, 1-[4-(2-{5-[(1R,4R,7R)-7-amino-2-azabicyclo[2.2.1]heptane-2-carbonyl]-7-methoxy-1-methyl-1H-1,3-benzodiazol-2-yl}-1-(cyclopropylmethyl)-1H-indol-7-yl)piperidin-1-yl]ethan-1-one] | 0.02

Same assay, conditions: human PAD4, rapid-fire mass spectrum (RFMS) assay; 5 nM hPAD4, 250 μM BAEE; read-out: hPAD4 RFMS IC50

Molecule | IC50 [µM]
COC(=O)N1CC(c2cccc3cc(-c4nc5cc(C(=O)N6C[C@H]7CC[C@@H]6[C@@H]7N)cc(OC)c5n4C)n(CC4CC4)c23)C1 [Example 40, Methyl 3-(2-(5-((1R,4R,7R)-7-amino-2-azabicyclo[2.2.1]heptane-2-carbonyl)-7-methoxy-1-methyl-1H-benzo[d]imidazol-2-yl)-1-(cyclopropylmethyl)-1H-indol-7-yl)azetidine-1-carboxylate] | 0.021
COc1cc(C(=O)N2C[C@H]3CC[C@@H]2[C@@H]3N)cc2nc(-c3cc4cccc(-c5ccc(O)c(C(N)=O)c5)c4n3CC3CC3)n(C)c12 [Example 120, 5-(2-(5-((1R,4R,7R)-7-amino-2-azabicyclo[2.2.1]heptane-2-carbonyl)-7-methoxy-1-methyl-1H-benzo[d]imidazol-2-yl)-1-(cyclopropylmethyl)-1H-indol-7-yl)-2-hydroxybenzamide] | 0.065
1-(2-(5-((1R,4R,7R)- 7-amino-2- azabicyclo[2.2.1]heptane- 2-carbonyl)-7- methoxy-1-methyl- 1H-benzo[d]imidazol- 2-yl)-1- (cyclopropylmethyl)- 1H-indol-7-yl)-N- (pyridin-3- yl)piperidine-1- carboxamide [Example 244] | 0.019
COc1cc(C(=O)N2C[C@H]3CC[C@@H]2[C@@H]3N)cc2nc(-c3cc4cccc(-c5cnn(C)c5)c4n3CC3CC3)n(C)c12 [Example 122, ((1R,4R,7R)-7-amino-2-azabicyclo[2.2.1]heptan-2-yl)(2-(1-(cyclopropylmethyl)-7-(1-methyl-1H-pyrazol-4-yl)-1H-indol-2-yl)-7-methoxy-1-methyl-1H-benzo[d]imidazol-5-yl)methanone] | 0.057
